Experimental findings from paper PMC6934184, “Selective DNA-PKcs inhibition extends the therapeutic index of localized radiotherapy and chemotherapy” (The Journal of Clinical Investigation, 2019) are described below.

The experiment deals with T1, EGFR (ErbB1) L858R (Homo sapiens, UniProt P00533, L858R).
T1 construct: purchased Thermo Fisher Scientific (Life Technologies) SelectScreen
Description: SelectScreen Z'LYTE. The format is biochemical. In a few lines:
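SelectScreen broad panel; activity (Z'LYTE, Adapta) plus binding formats. ATP: Km app for CSF1R Z'LYTE; 10 for CAMK1 Adapta. Readout = % per kinase.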

T1 sequence (P00533 25-1210 L858R): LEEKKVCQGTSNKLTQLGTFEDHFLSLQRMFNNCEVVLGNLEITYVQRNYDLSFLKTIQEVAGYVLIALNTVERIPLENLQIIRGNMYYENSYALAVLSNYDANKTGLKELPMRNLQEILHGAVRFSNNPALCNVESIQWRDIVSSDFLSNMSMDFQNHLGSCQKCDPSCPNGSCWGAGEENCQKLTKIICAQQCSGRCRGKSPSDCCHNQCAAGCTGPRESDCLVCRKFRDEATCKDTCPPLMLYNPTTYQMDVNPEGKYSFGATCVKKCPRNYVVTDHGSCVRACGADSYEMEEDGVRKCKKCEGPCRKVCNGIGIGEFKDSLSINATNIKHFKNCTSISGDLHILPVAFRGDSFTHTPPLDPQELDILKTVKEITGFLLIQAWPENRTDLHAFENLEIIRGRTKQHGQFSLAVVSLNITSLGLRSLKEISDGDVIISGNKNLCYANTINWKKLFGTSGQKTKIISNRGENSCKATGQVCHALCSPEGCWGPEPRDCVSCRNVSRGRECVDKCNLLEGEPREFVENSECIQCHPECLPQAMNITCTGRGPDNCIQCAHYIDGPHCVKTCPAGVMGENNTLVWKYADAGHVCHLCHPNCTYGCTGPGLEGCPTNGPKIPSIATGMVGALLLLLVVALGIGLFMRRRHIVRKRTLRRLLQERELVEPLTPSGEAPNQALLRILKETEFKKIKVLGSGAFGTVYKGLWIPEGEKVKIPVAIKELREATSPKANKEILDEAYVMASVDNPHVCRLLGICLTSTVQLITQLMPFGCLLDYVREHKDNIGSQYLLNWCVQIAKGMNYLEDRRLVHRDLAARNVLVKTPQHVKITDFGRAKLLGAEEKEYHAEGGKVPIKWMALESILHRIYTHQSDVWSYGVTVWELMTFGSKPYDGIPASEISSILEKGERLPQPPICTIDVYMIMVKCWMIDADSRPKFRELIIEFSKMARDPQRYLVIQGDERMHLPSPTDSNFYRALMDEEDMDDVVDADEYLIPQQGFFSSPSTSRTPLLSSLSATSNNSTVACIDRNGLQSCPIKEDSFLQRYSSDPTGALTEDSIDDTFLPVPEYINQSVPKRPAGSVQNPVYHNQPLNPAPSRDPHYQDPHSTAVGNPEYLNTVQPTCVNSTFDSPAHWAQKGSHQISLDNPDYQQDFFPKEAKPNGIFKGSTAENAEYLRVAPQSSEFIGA

What is called inhibition is the relative decrease from the control value, in per cent. Turning to `CN(C(=O)CN1CCOCC1)c1ccc2sc3c(-c4cccc5c(=O)cc(N6CC7CCC(C6)O7)oc45)cccc3c2c1` [NU5455], the inhibition at 1 µM is -15%.
